Test results as given in article PMC11783400, “Assessment of Potential Drug–Drug Interactions for Novel Oral Melanocortin‐1 Receptor Agonist Dersimelagon” (Pharmacology Research & Perspectives, 2025).

Tests used:
UGT2B7 = molecular target: T1, UGT2B7 (Homo sapiens, UniProt P16662); experiment: glucuronidation inhibition in human liver microsomes; format: biochemical; conditions: substrate 3'-azido-3'-deoxythymidine; direct inhibition
T1 construct: native enzyme in human liver microsomes
T1 sequence (P16662 24-529): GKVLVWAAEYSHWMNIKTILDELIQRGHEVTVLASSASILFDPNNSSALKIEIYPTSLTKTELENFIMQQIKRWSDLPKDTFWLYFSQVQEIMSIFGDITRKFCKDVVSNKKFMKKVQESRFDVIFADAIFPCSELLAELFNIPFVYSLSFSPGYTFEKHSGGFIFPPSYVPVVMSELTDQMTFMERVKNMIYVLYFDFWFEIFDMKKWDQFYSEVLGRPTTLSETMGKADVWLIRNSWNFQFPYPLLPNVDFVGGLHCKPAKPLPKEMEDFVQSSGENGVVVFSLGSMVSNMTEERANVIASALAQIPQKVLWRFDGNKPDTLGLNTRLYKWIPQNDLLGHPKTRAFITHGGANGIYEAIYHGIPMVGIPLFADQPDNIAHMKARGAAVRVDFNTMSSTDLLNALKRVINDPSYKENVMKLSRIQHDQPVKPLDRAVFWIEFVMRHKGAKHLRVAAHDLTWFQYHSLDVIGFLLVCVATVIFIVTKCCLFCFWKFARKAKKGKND
Description: glucuronidation inhibition in human liver microsomes on UGT2B7

MATE2‐K = molecular target: T2, MATE2‐K (Homo sapiens, UniProt Q86VL8); experiment: uptake inhibition in HEK293 cells expressing the transporter; format: cell-based
T2 construct: gene SLC47A2; expressed in HEK293 cells
Description: uptake inhibition in HEK293 cells expressing the transporter on MATE2‐K

OAT3 = molecular target: T3, OAT3 (Homo sapiens, UniProt Q8TCC7); experiment: as above; format: cell-based
T3 construct: gene SLC22A8; expressed in HEK293 cells
T3 sequence (Q8TCC7 1-542): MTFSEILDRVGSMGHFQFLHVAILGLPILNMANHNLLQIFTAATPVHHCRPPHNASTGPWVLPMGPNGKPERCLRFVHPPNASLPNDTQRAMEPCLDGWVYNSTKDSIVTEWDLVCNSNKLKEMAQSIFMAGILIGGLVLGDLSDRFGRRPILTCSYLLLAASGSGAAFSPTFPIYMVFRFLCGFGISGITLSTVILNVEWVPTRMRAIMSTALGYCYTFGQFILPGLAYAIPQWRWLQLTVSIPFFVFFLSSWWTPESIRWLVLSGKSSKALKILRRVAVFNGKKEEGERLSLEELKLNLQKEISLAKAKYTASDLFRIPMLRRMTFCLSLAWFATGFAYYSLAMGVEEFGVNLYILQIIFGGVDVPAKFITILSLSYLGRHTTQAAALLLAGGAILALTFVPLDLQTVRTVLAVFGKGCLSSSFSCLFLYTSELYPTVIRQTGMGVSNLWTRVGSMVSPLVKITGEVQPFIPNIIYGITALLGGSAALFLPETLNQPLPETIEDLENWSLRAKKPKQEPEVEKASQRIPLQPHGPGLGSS
Description: uptake inhibition in HEK293 cells expressing the transporter on OAT3

CYP3A4 (Table 1); CYP3A = molecular target: T4, CYP3A4 (Table 1); CYP3A (Homo sapiens, UniProt P08684); experiment: CYP activity inhibition in human liver microsomes; format: biochemical; conditions: read-out: IC50 (μM) / Direct inhibition
T4 construct: native enzyme in human liver microsomes
Description: CYP activity inhibition in human liver microsomes on CYP3A4 (Table 1); CYP3A (text)

OATP1B3 = molecular target: T5, OATP1B3 (Homo sapiens, UniProt Q9NPD5); experiment: uptake inhibition in HEK293 cells expressing the transporter; format: cell-based
T5 construct: gene SLCO1B3; expressed in HEK293 cells
T5 sequence (Q9NPD5 1-702): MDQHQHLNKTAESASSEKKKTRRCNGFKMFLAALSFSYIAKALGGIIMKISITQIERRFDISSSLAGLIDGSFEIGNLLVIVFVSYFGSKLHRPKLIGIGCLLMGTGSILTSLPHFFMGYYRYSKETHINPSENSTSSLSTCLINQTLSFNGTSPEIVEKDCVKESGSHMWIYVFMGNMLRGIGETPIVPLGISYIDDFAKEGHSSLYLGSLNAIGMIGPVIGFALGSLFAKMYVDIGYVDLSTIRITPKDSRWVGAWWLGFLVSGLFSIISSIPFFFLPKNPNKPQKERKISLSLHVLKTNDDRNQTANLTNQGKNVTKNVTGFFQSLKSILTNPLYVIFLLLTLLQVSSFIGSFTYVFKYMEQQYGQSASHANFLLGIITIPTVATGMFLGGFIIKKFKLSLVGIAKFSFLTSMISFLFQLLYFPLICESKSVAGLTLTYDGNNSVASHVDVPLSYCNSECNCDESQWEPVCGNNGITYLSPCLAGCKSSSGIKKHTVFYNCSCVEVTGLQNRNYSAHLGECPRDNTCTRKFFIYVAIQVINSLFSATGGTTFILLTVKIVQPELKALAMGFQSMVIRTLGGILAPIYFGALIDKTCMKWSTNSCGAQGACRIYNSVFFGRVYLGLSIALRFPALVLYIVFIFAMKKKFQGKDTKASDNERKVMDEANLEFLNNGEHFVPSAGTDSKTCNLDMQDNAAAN
Description: uptake inhibition in HEK293 cells expressing the transporter on OATP1B3

CYP2C19 = molecular target: T6, CYP2C19 (Homo sapiens, UniProt P33261); experiment: CYP activity inhibition in human liver microsomes; format: biochemical; conditions: read-out: IC50 (μM) / Direct inhibition
T6 construct: native enzyme in human liver microsomes
Description: CYP activity inhibition in human liver microsomes on CYP2C19

MATE1 = molecular target: T7, MATE1 (Homo sapiens, UniProt Q96FL8); experiment: uptake inhibition in HEK293 cells expressing the transporter; format: cell-based
T7 construct: gene SLC47A1; expressed in HEK293 cells
T7 sequence (Q96FL8 1-570): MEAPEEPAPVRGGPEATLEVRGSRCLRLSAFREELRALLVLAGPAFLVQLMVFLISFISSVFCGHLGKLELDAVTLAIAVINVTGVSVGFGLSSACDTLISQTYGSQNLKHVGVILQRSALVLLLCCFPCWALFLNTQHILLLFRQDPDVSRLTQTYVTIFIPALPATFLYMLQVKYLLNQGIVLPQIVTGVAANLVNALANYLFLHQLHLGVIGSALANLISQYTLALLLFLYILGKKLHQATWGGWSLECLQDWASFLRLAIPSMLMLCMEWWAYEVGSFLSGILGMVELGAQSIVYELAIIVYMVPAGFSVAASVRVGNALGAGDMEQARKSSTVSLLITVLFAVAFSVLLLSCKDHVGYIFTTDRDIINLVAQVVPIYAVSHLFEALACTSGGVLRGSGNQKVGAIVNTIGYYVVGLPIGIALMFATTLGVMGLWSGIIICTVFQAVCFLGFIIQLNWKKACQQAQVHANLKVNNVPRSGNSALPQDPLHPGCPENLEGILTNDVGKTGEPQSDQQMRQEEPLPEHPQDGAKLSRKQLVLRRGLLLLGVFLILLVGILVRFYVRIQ
Description: uptake inhibition in HEK293 cells expressing the transporter on MATE1

T4 sequence (P08684 2-503): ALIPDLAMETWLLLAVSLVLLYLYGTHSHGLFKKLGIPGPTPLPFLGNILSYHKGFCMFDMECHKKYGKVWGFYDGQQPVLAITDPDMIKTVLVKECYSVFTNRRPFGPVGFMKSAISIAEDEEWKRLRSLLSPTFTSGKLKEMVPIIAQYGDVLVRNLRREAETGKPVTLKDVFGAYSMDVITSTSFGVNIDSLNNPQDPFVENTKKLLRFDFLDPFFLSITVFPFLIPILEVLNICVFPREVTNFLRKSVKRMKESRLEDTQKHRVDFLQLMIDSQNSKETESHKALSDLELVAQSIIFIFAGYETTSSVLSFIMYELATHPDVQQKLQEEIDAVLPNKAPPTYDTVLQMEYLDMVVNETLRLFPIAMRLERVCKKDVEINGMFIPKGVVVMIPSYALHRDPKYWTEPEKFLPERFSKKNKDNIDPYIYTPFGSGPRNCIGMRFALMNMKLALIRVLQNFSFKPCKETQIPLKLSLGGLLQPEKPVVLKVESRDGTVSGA
T6 sequence (P33261 whole entry): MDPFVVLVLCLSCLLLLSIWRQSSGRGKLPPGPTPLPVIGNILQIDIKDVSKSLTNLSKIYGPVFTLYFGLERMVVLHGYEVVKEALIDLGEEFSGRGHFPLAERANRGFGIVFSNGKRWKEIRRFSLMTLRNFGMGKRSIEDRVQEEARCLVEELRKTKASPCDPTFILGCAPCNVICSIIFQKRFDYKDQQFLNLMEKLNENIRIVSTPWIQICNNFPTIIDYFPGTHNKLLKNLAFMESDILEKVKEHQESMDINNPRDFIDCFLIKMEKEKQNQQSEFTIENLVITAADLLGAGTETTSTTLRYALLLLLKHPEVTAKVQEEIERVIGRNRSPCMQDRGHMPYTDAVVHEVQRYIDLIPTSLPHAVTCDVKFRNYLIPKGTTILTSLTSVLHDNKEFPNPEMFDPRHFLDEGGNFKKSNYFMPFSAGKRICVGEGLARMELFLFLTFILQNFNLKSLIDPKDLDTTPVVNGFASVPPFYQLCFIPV
T2 sequence (Q86VL8 1-566 isoform Q86VL8-3): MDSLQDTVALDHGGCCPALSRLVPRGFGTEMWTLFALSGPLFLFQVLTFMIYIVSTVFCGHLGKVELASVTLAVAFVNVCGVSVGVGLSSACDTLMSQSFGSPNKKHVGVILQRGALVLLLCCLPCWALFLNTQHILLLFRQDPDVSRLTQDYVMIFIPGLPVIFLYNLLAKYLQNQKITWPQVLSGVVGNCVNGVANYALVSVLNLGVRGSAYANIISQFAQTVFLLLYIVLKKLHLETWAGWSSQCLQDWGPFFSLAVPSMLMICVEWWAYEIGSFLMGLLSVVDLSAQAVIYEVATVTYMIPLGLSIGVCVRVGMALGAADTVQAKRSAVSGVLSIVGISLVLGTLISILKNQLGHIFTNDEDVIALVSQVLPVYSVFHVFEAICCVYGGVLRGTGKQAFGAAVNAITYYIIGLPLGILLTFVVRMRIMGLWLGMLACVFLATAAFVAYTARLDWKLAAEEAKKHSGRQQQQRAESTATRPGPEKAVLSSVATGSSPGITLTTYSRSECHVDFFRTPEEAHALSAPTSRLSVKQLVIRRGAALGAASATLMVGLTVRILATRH

SMILES: COC[C@H]1CN(C(=O)[C@]2(F)CN(C3CCCC3)C[C@H]2c2ccc(OC)cc2)C[C@@H]1c1ccc(C(F)(F)F)cc1N1CCC(C(=O)O)CC1 [dersimelagon]
- IC50 (UGT2B7): > 50 µM
- IC50 (MATE2‐K): > 27.4 µM
- IC50 (OAT3): 0.227 µM
- IC50 (CYP3A4 (Table 1); CYP3A): 74.6 µM
- IC50 (OATP1B3): 0.0471 µM
- IC50 (CYP2C19): 23.4 µM
- IC50 (MATE1): 5.64 µM
